{
  "source": "patent US20260295054A1",
  "about": "“GLUCAGON-LIKE PEPTIDE-1 RECEPTOR AGONIST VARIANTS AND METHODS THEREOF” (Neuraly, Inc., priority 2023, published 2026)",
  "origin": "cited, not measured here",
  "key": {"[1]": {"system": "type 2 diabetic subjects", "settings": "for HbA1c reduction from baseline: week 16"}, "[2]": {"settings": "humans"}},
  "note": "Like-named read-outs stand apart in the source and are kept apart here.",
  "data": [
    {"substance": "albiglutide", "values": [
      {"measurement": "HbA1c reduction from baseline", "setting": "[1]; 30 mg weekly", "result": 0.87, "unit": "%"},
      {"measurement": "HbA1c reduction from baseline", "setting": "[1]; 50 mg biweekly", "result": 0.79, "unit": "%"},
      {"measurement": "HbA1c reduction from baseline", "setting": "[1]; 100 mg monthly", "result": 0.87, "unit": "%"},
      {"measurement": "albiglutide concentrations between monthly doses", "setting": "[1]; monthly dosing", "result": "fall essentially to zero between monthly doses"},
      {"measurement": "fasting blood glucose control", "setting": "[1]; monthly dosing", "result": "substantial loss in fasting blood glucose control"},
      {"measurement": "nausea and vomiting on dosing days", "setting": "[1]; monthly vs weekly dosing", "result": "significantly greater incidence of nausea and vomiting"},
      {"measurement": "serum half-life", "setting": "[2]", "result": "~ 5 days"}
    ]}
  ]
}
